Data taken from publication PMC12454871, “Embedding a feruloyl esterase active site into a thermophilic endoxylanase scaffold for the degradation of feruloylated xylans” (Computational and Structural Biotechnology Journal, 2025).

Key:
Xyn11 [1] = target: T1, Xyn11 (Pseudothermotoga thermarum, UniProt F7YXD6, L292S/K296H, form not given); experiment: X-ray crystallography, […] Å; format: binding; settings: native xylanase active site (E144/E251); trapped expression inducer
T1 construct: gene Theth_1636; GH10 single-domain TIM barrel, 342 residues; all rows are the designed double mutant Xyn11m1
T1 sequence (F7YXD6 entry or part of it L292S/K296H, form open): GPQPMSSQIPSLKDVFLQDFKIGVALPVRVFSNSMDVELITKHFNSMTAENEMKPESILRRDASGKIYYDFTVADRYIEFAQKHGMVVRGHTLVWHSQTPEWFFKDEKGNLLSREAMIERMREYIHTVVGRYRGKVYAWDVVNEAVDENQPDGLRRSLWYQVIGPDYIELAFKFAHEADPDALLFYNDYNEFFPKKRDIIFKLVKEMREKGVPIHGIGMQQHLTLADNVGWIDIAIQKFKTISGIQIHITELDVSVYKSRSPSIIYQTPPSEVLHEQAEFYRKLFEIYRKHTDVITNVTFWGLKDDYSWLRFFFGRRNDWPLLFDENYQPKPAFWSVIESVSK

Xyn11 [2] = target: T1, Xyn11; experiment: phenol red pH-indicator esterase assay, absorbance […] nm; format: biochemical; settings: pH 8.0, 90 °C, 5 mM EPPS, 50 mM NaCl; engineered Ser271-His275-Glu272 esterase site

| Km (Xyn11 [2]) [µM] | SMILES | X-ray crystallography, 2.1 Å (Xyn11 [1]) |
| --- | --- | --- |
| – | CC(C)S[C@@H]1O[C@H](CO)[C@H](O)[C@H](O)[C@H]1O [IPTG] | E144 and E251 and includes a trapped IPTG molecule |
| 2900 ± 200 | COC(=O)/C=C/c1ccc(O)c(OC)c1 [methyl ferulate] | – |
